Here are results for 5 compounds from patent publication US20140349943A1, “TOPICAL FORMULATIONS OF CHEMERIN C15 PEPTIDES FOR THE TREATMENT OF DERMATOLOGICAL CONDITIONS” (priority 2011, published 2014).

In data set [1] the target is T1, GPR1 (Homo sapiens, UniProt P46091).
T1 construct: host or cells: CHO
T1 sequence (P46091 1-355): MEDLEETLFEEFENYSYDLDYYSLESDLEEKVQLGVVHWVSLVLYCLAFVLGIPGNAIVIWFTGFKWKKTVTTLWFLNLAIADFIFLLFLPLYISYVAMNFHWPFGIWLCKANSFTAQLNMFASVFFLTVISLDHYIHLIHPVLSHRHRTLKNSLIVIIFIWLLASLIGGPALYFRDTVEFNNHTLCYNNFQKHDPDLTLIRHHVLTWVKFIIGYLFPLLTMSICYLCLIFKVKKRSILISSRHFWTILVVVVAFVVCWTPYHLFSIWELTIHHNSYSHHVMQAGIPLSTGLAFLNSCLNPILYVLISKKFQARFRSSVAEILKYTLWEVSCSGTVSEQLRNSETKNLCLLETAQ
Nature of the data set: PathHunter β-Arrestin assay, GPR1, agonist and antagonist mode. The data set is classed as cell-based. The following applies: for agonist activity, in words: FIG. 2A/2B. On the procedure:
(§1) The DiscoveRx PathHunter™ eXpress GPCR activity assay was employed to test agonist and antagonist activities of the chemerin peptides against the GPCRs ChemR23 and GPR1. Two assay formats were tested, the PathHunter β-Arrestin assay and the Hit Hunter cAMP Hunter assay.
(§2) The PathHunter β-Arrestin assay monitors the activation of a GPCR in a homogenous, non-imaging assay format using a technology developed by DiscoveRx called complementation, which utilizes an enzyme fragment complementation (EFC) assay with β-galactosidase (β-Gal) as the functional reporter. The enzyme is split into two complementary portions expressed as fusion proteins in the cell. The Enzyme Acceptor (EA) is fused to β-Arrestin and the ProLink donor peptide is fused to the GPCR of interest. Upon GPCR stimulation, β-Arrestin is recruited to the receptor for desensitization, bringing the two fragments of β-Gal together and allowing complementation to occur.
(§3) The assay involves CHO cell lines that express 1) a GPCR of interest (e.g. ChemR23 or GPR1) that has a fragment of the βgal enzyme fused to the C-terminus of the receptor and 2) a β-arrestin fused to the main β-gal enzyme. When the agonist binds to the receptor, β-arrestin is recruited to the receptor and the β-gal enzyme is complemented by the fragment from the GPCR thus forming a functional β-gal enzyme. A substrate is then added and luminescence is generated to detect β-arrestin recruitment.
(§4) The protocol used was a standard protocol employed by DiscoveRx PathHunter™ profiling service. […] Once it was established that the cells were healthy and growing normally, cells were passaged from flasks using cell dissociation reagent and seeded into white walled clear bottom 384-well microplates for compound profiling. For profiling, cells were seeded at a density of 5000 cells per well in a total volume of 20 μL and were allowed to adhere and recover overnight prior to compound addition.
(§5) For the agonist assay, intermediate dilution of compound stocks were generated such that 5 μL of 5× compound could be added to each well with a final DMSO concentration of 1% of total volume. For profiling compound in agonist mode, the cells were incubated in the presence of compound at 37° C. for 90 minutes.
(§6) For the antagonist assay, agonist dose curves were performed the morning of profiling to determine the EC80 value for the following antagonist testing with compounds. 5 μL of 5× agonist (i.e. chemerin) was added to each well with an equal concentration of vehicle present. EC80 agonist concentration was determined directly from agonist dose curve. For antagonist determination, cells were preincubated with antagonist followed by agonist challenge at the EC80 concentration: 4. 5 μL of 5× compound added to cells and incubated at 37° C. for 30 minutes. 5. 5 μL of 6× EC80 agonist added to cells and incubated at 37° C. for 90 minutes.
(§7) Microplates were read following signal generation with a PerkinElmer Envision™ instrument for chemiluminescent signal detection
(§8) Dose curves in the presence and absence of compound were plotted using GraphPad Prism or Activity Base. For agonist mode assays, percentage activity was calculated using the following formula: % Activity=100%×(Mean RLU of test sample−mean RLU of vehicle control)/(mean MAX RLU control ligand−mean RLU of vehicle control)). For antagonist mode assays, percentage inhibition was calculated using the following formula: % Inhibition=100%×(1−(Mean RLU of test sample−mean RLU of vehicle control)/(mean RLU of EC80 control−mean RLU of vehicle control)).

For data set [2], the target named is T2, mChemR23 (Mus musculus, UniProt P97468).
T2 construct: host or cells: CHO (stated generally for the PathHunter assay)
T2 sequence (P97468 1-371): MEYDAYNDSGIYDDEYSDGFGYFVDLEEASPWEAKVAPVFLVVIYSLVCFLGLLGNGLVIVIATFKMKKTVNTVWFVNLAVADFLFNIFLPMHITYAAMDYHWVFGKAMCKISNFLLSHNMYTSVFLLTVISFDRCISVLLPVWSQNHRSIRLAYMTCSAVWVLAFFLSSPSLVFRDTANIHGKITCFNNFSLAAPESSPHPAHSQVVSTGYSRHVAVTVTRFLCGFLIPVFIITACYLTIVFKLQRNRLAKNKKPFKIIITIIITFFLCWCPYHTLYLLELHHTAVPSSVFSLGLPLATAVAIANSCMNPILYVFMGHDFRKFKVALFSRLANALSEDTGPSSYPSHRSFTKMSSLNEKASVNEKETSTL
In words: PathHunter β-Arrestin assay, mouse ChemR23. The format is cell-based. On the procedure:
as §1, §2, §3, §4, §5
For the antagonist assay, agonist dose curves were performed the morning of profiling to determine the EC80 value for the following antagonist testing with compounds. 5 μL of 5× agonist (i.e. chemerin) was added to each well with an equal concentration of vehicle present. EC80 agonist concentration was determined directly from agonist dose curve. For antagonist determination, cells were preincubated with antagonist followed by agonist challenge at the EC80 concentration: 4. 5 μL of 5× compound added to cells and incubated at 37° C. for 30 minutes. 5. […]
as §7, §8

Data set [3] concerns psoriasis patients. The following applies: cited from earlier work.
Data set [4] concerns the target T3, ChemR23 (CMKLR1) (Homo sapiens, UniProt Q99788).
T3 construct: host or cells: CHO
T3 sequence (Q99788 1-373): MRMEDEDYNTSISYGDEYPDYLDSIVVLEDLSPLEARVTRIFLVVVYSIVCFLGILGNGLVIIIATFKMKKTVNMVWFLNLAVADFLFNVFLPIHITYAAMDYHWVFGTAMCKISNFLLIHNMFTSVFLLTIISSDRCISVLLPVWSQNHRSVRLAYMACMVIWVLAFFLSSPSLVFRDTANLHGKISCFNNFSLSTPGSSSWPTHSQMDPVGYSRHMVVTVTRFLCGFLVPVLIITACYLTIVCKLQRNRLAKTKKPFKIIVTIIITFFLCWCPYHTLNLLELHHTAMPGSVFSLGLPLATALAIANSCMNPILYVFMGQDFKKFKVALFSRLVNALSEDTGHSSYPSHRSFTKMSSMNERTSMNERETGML
Nature of the data set: PathHunter β-Arrestin assay, ChemR23 (CMKLR1), agonist and antagonist mode. The data set is classed as cell-based. On the procedure:
as §1, §2, §3, §4, §5, §6, §7, §8

For data set [5], the target named is T4, ChemR23 (Homo sapiens, UniProt Q99788).
T4 sequence (Q99788 1-373): T3 sequence (Q99788 1-373)
Nature of the data set: Hit Hunter cAMP Hunter assay, human ChemR23. The data set is classed as cell-based. On the procedure: as §1
as §4, with “reagent buffer” for “reagent”, “10000” for “5000”, “addition. Cells were treated the following day using the protocols shown below. cAMP modulation was determined using the DiscoveRx HitHunter cAMP XS+ assay.” for “addition.”
For profiling compound in agonist mode, the cells were incubated in the presence of compound at 37° C. for 30 minutes.
EC80 agonist concentration was determined directly from agonist dose curve.
Microplates were read following signal generation with a PerkinElmer Envision™ instrument for chemiluminescent signal detection.
Dose curves in the presence and absence of compound were plotted using GraphPad Prism or Activity Base.

The subject of data set [6] is IFNγ/LPS stimulated human macrophages. Nature of the data set: Cytokine secretion by IFNγ/LPS stimulated human macrophages (Luminex). The format is cell-based. The source says: In this example, the ability of human chemerin C15 to inhibit secretion of cytokines from activated human macrophages was examined. For this experiment, the activity of the human chemerin C15 peptide […] (SEQ ID NO: 1) was compared to that of the human chemerin C17 peptide […] (SEQ ID NO: 25). The C15 and C17 peptides were synthesized by solid phase synthesis using BOP coupling of FMOC protected amino acids with final cleavage from the resin with TFA. Peptides were purified by reverse phase C18 chromatography using a water/acetonitrile gradient.
Human macrophages were derived from human CD14+ monocytes obtained from 3 donors. On Day 1, the isolated monocytes were thawed and seeded in triplicate for each group in 1 ml RPMI 1640 GlutaMAX™ media (supplemented with 10% FBS, 100 U/ml penicillin, 100 μg/ml streptomycin, 0.05 μM mercaptoethanol, 1% NEAA and 1% sodium pyruvate) per well of a 24 well cell culture dish at a cell concentration of 5×10^5 cells/ml. M-CSF was added to each well to give a final concentration of 25 ng/ml. Cells were grown for 7 days at 37° C. with 5% CO2 to differentiate the cells into macrophages. Media and M-CSF were replaced after 4 days.
Following differentiation, the media containing M-CSF was removed. The cells were washed and vehicle control, dexamethasone, C15 or C17 were added to the appropriate wells. The test peptides were dissolved in 50% DMSO/water prior to addition. C-15 (MW 1669; 16.7 mg/ml) was added to a final concentration of […] and C17 (MW 1904; 19.0 mg/ml) was added to a final concentration of 1 μM. Dexamethasone was added to a final concentration of 1 μM. Following addition to the wells, the plates were incubated at 37° C. with 5% CO2 for 1 hour. An equal volume of complete media was added to the non-treated wells. Control or test treatments were maintained at the correct concentration throughout the assay.
IFNγ (final concentration 20 ng/ml) was then added to the appropriate wells. Following IFNγ addition, the plates were incubated at 37° C. with 5% CO2 for 4 hours. The concentration of vehicle control, test treatments or dexamethasone was maintained during IFNγ stimulation. LPS (final concentration 10 ng/ml) was then added to the appropriate wells. Following LPS addition, the plates were incubated at 37° C. with 5% CO2 for 15 hours. After 6 hours, ˜60 μl of culture supernatant was removed from all wells and stored at −80° C. for analysis. The concentration of vehicle control, test treatments or dexamethasone was maintained during LPS stimulation.
At 15 hours post LPS stimulation, the remaining cell culture supernatant was harvested and stored at −80° C. until assayed. The concentration of vehicle control, test treatments or dexamethasone was maintained until culture termination.
Cell culture supernatants taken at 6 hours and 15 hours post LPS addition were assayed for the production of RANTES, TNFα, IL-1β, IL-6, IL-10, IL-12p40 (subunit common to IL-12 and IL-23) and IL-15 (negative control) using Luminex® technology (Procarta human cytokine kit; Panomics) following the manufacturer's instructions.
In this experiment, the importance of the FYFP motif (SEQ ID NO: 2) in the human chemerin C15 peptide on anti-inflammatory activity was examined. The ability of the human chemerin C15 peptide […] (SEQ ID NO: 1) was compared to that of a substituted chemerin C15 peptide having the amino acid sequence […] (SEQ ID NO: 27), where the second phenylalanine in the peptide is modified to alanine. The experiment was performed as described in Example 1. 0.1 pM 0.5 pM and 1 pM concentrations of the C15 and C15 mutant peptides were tested. Cytokine expression was determined as described in Example 1.

[7] abbreviates: Example 3, 0.1 pM 0.5 pM and 1 pM tested, FIG. 3.

Peptide text beside a SMILES is read from it.

As usually defined, the EC50 is the concentration giving half of the maximal effect. For the compound “hrChemerin: chemerin protein, control agonist of ChemR23 and GPR1”, the “agonist activity, in words” value in data set [1] (GPR1) was “potent agonist activity”. Moreover, in data set [2] (Arrestin, Agonist, mChemR23, read-out: RC50 (uM), EC50), the EC50 stood at 0.00154 µM.
As for “Stelara: approved systemic mono-clonal antibody for psoriasis, clears IL-23”, in data set [3] (post-injection), the “time of maximal serum concentrations” value is 5 days. For the same compound, in data set [3] (within two weeks after a single dose), the “improvement in PASI score” value is given as 50%.
For orientation: IC50 means the point on the concentration scale where inhibition reaches its midpoint. On to `C[C@H](N)C(=O)NCC(=O)N[C@@H](CCC(=O)O)C(=O)N[C@@H](CC(=O)O)C(=O)N1CCC[C@H]1C(=O)N[C@@H](Cc1c[nH]cn1)C(=O)N[C@@H](CO)C(=O)N[C@@H](Cc1ccccc1)C(=O)N[C@@H](Cc1ccc(O)cc1)C(=O)N[C@@H](Cc1ccccc1)C(=O)N1CCC[C@H]1C(=O)NCC(=O)N[C@@H](CCC(N)=O)C(=O)N[C@@H](Cc1ccccc1)C(=O)N[C@@H](C)C(=O)N[C@@H](Cc1ccccc1)C(=O)O` [C16 (human)] (H-AGEDPHSFYFPGQFAF-OH; N-terminus and C-terminus assumed), for which the IC50 in data set [1], in data set [4], in data set [2] and in data set [5] was over 10 µM in each case. Also, the “agonist activity, in words” value in data set [1] (GPR1) is “exhibited agonist activity”; in data set [4] (human ChemR23, FIG. 2A/2B), “exhibited agonist activity”. For the same compound, the “Rank Order” value was 2 in data set [1] (GPR1, agonist) and 1 in data set [4] (ChemR23, agonist). Besides, the “% Max Activity” value worked out at 87.9% in data set [1] (GPR1, agonist mode) and 98.6% in data set [4] (ChemR23, agonist mode). Besides, the “% Max Inhibition” value is reported as 0% in data set [1] (GPR1, antagonist mode, chemerin at EC80) and 0% in data set [4] (ChemR23, antagonist mode, chemerin at EC80).
By inhibition is commonly meant how much of the control response was suppressed. Take `C[C@@H]1C[C@H]2[C@@H]3CCC4=CC(=O)C=C[C@]4(C)[C@@]3(F)[C@@H](O)C[C@]2(C)[C@@]1(O)C(=O)CO` [Dexamethasone]: in data set [6] (1 μM dosage), the “inhibition of IL-1β secretion” value is given as “approximately 30%” and the “inhibition of RANTES secretion” value was about 50%. Also, the inhibition at 1 µM in data set [6] (Homo sapiens, Macrophage, dexamethasone 1 μM, read-out: inhibition of the production of IL-10) was about 70%.
For the compound “AGEDPHGYFAPGQFA [mutant C15 polypeptide]”, in data set [6] (setting [7]), the “percent inhibition of RANTES expression” value is recorded as “unable to inhibit expression” and the “percent inhibition of TNFα expression” value is “unable to inhibit expression”.
